Literature values in US20030212034A1, “Method of treatment of obesity and paralyzed muscle and ergogenic aids” (priority 2002, published 2003).

Tested on: AMPK
Details: analogues of 5′-AMP; Hardie & Carling 1997; cited from earlier work

SMILES	potency of AMPK activation in vitro
Nc1ncnc2c([C@@H]3O[C@H](COP(=O)(O)O)[C@@H](O)[C@H]3O)[nH]nc12 [Formycin A 5′-monophosphate]	less potently
NC(=O)c1ncn([C@@H]2O[C@H](COP(=O)(O)O)[C@@H](O)[C@H]2O)c1N [ZMP]	less potently
Nc1ncnc2c1ncn2[C@@H]1O[C@H](COP(N)(=O)O)[C@@H](O)[C@H]1O [adenosine 5′-phosphoramidate]	more potently
Nc1ncnc2c1ncn2[C@@H]1O[C@H](COP(O)(O)=S)[C@@H](O)[C@H]1O [adenosine-5′-thiomonophosphate]	more potently
